Test results from patent US12435044B2, “Pyridazinone herbicides and pyridazinone intermediates used to prepare a herbicide” (FMC Corporation, priority 2018, dated 2025).

What was measured:
Type in all cases: in vivo
[1] = tested on: duck salad (Heteranthera limosa); assay: Test B flooded paddy test; settings: Flood, 250 g ai/ha, Ducksalad
Method: (§1) Plant species in the flooded paddy test selected from rice (Oryza sativa), sedge, umbrella (small-flower umbrella sedge, Cyperus difformis), duck salad (Heteranthera limosa) and barnyardgrass (Echinochloa crus-galli) were grown to the 2-leaf stage for testing. At time of treatment, test pots were flooded to 3 cm above the soil surface, treated by application of test compounds directly to the paddy water, and then maintained at that water depth for the duration of the test. Treated plants and controls were maintained in a greenhouse for 13 to 15 d, after which time all species were compared to controls and visually evaluated. Plant response ratings, summarized in Table B, are based on a scale of 0 to 100 where 0 is no effect and 100 is complete control. A dash (-) response means no test result.

[2] = tested on: sedge, umbrella (small-flower umbrella sedge, Cyperus difformis); assay: Test B flooded paddy test; settings: Flood, 250 g ai/ha
Method: as §1

[3] = tested on: rice (Oryza sativa); assay: Test B flooded paddy test; settings: Flood, 250 g ai/ha
Method: as §1

[4] = tested on: barnyardgrass (Echinochloa crus-galli); assay: Test B flooded paddy test; settings: Flood, 250 g ai/ha
Method: as §1

[5] = tested on: field poppy (Papaver rhoeas); assay: Test C postemergence greenhouse test; settings: scale 0 to 100
From the text: (§2) Seeds of plant species selected from blackgrass (Alopecurus myosuroides), ryegrass, Italian (Lolium multiflorum), wheat, winter (winter wheat, Triticum aestivum), galium (catchweed bedstraw, Galium aparine), corn (Zea mays), crabgrass, large (Digitaria sanguinalis), foxtail, giant (Setaria faberii), johnsongrass (Sorghum halepense), lambsquarters (Chenopodium album), morningglory (Ipomoea coccinea), nutsedge, yellow (Cyperus esculentus), pigweed (Amaranthus retroflexus), ragweed (common ragweed, Ambrosia elatior), soybean (Glycine max), barnyardgrass (Echinochloa crus-galli), oilseed rape (Brassica napus), waterhemp (common waterhemp, Amaranthus rudis), pigweed, palmer (Amaranthus palmeri), kochia (Kochia scoparia), oat, wild (Avena fatua), surinam grass (Brachiaria decumbens), windgrass (Apera spica-venti), poinsettia, wild (Euphorbia heterophylla) and velvetleaf (Abutilon theophrasti) were planted into a silt loam soil and treated preemergence with test chemicals formulated in a non-phytotoxic solvent mixture which included a surfactant.
(§3) At the same time, plants selected from these crop and weed species and also chickweed (common chickweed, Stellaria media), buckwheat, wild (Polygonum convolvulus), mustard, wild (Sinapis arvensis), field poppy (Papaver rhoeas), field violet (Viola arvensis), nightshade (eastern black nightshade, Solanum ptycanthum), speedwell (bird's-eye speedwell, Veronica persica), horseweed (Conyza canadensis), cutleaf geranium (Geranium dissectum), and Canada thistle (Cirsium arvense) were planted in pots containing Redi-Earth® planting medium (Scotts Company, 14111 Scottslawn Road, Marysville, Ohio 43041) comprising spaghnum peat moss, vermiculite, wetting agent and starter nutrients and treated with postemergence applications of test chemicals formulated in the same manner. Plants ranged in height from 2 to 18 cm (1- to 4-leaf stage) for postemergence treatments. Treated plants and controls were maintained in a greenhouse for 13 to 21 d, after which time all species were compared to controls and visually evaluated. Plant response ratings, summarized in Table C-1 (postemergence) and C-2 (preemergence), are based on a scale of 0 to 100 where 0 is no effect and 100 is complete control. A dash (-) response means no test result.

[6] = tested on: chickweed (common chickweed, Stellaria media); assay: Test C postemergence greenhouse test; settings: scale 0 to 100
From the text: as §2, §3

[7] = tested on: wheat, spring (Triticum aestivum); assay: Test D pre-/postemergence controlled growth environment test
From the text: (§4) Seeds of plant species selected from blackgrass (Alopecurus myosuroides), galium (catchweed bedstraw, Galium aparine), kochia (Kochia scoparia), oilseed rape (Brassica napus), barley, spring (Hordeum vulgare), wheat, spring (Triticum aestivum), oat, wild (Avena fatua), barley, winter (Hordeum vulgare) and wheat, winter (Triticum aestivum) were planted into a silt loam soil and treated preemergence with test chemicals formulated in a non-phytotoxic solvent mixture which included a surfactant.
(§5) At the same time, plants selected from these crop and weed species and also bluegrass (annual bluegrass, Poa annua), canarygrass (littleseed canarygrass, Phalaris minor), chickweed (common chickweed, Stellaria media), bromegrass, downy (downy bromegrass, Bromus tectorum), field poppy (Papaver rhoeas), field violet (Viola arvensis), foxtail, green (Setaria viridis), deadnettle (henbit deadnettle, Lamium amplexicaule), ryegrass, Italian (Lolium multiflorum), lambsquarters (Chenopodium album), pigweed (Amaranthus retroflexus), chamomile (scentless chamomile, Matricaria inodora), Russian thistle (Salsola kali), speedwell (bird's-eye speedwell, Veronica persica), buckwheat, wild (Polygonum convolvulus), mustard, wild (Sinapis arvensis), radish, wild (Raphanus raphanistrum), windgrass (Apera spica-venti), geranium, cutleaf (Geranium dissectum) and Canada thistle (Cirsium arvense) were planted in pots containing Redi-Earth® planting medium (Scotts Company, 14111 Scottslawn Road, Marysville, Ohio 43041) comprising spaghnum peat moss, vermiculite, wetting agent and starter nutrients and treated with postemergence applications of the test chemicals formulated in the same manner. Plants ranged in height from 2 to 18 cm (1- to 4-leaf stage). Treated plants and controls were maintained in a controlled growth environment for 14 to 21 d after which time all species were compared to controls and visually evaluated. Plant response ratings, summarized in Table D, are based on a scale of 0 to 100 where 0 is no effect and 100 is complete control. A dash (-) response means no test result.

[8] = tested on: barley, spring (Hordeum vulgare); assay: as above
From the text: as §4, §5

[9] = tested on: oilseed rape (Brassica napus); assay: as above
From the text: as §4, §5

Cc1cc(Cl)c2ccccc2c1-c1c(O)c(Cl)nn(C)c1=O [Cpd. No. 65]
Plant response rating (0 to 100 scale) [1]: 80
Plant response rating (0 to 100 scale) [2]: 90
Plant response rating (0 to 100 scale) [3]: 20
Plant response rating (0 to 100 scale) [4]: 40
Plant response rating, Field Poppy ([5]; 16 g ai/ha): 80
Plant response rating, Field Poppy ([5]; 31 g ai/ha): 98
Plant response rating, Field Poppy ([5]; 62 g ai/ha): 98
Plant response rating, Field Poppy ([5]; 125 g ai/ha): 100
Plant response rating, Chickweed ([6]; 16 g ai/ha): 98
Plant response rating, Chickweed ([6]; 31 g ai/ha): 95
Plant response rating, Chickweed ([6]; 62 g ai/ha): 95
Plant response rating, Chickweed ([6]; 125 g ai/ha): 98
Plant response rating, Wheat, Spring ([7]; Postemergence, 16 g ai/ha): 90
Plant response rating, Wheat, Spring ([7]; Postemergence, 31 g ai/ha): 93
Plant response rating, Wheat, Spring ([7]; Postemergence, 62 g ai/ha): 93
Plant response rating, Wheat, Spring ([7]; Postemergence, 125 g ai/ha): 93
Plant response rating, Wheat, Spring ([7]; Preemergence, 16 g ai/ha): 63
Plant response rating, Wheat, Spring ([7]; Preemergence, 31 g ai/ha): 78
Plant response rating, Wheat, Spring ([7]; Preemergence, 62 g ai/ha): 90
Plant response rating, Wheat, Spring ([7]; Preemergence, 125 g ai/ha): 100
Plant response rating, Barley, Spring ([8]; Postemergence, 16 g ai/ha): 57
Plant response rating, Barley, Spring ([8]; Postemergence, 31 g ai/ha): 78
Plant response rating, Barley, Spring ([8]; Postemergence, 62 g ai/ha): 88
Plant response rating, Barley, Spring ([8]; Postemergence, 125 g ai/ha): 93
Plant response rating, Barley, Spring ([8]; Preemergence, 16 g ai/ha): 0
Plant response rating, Barley, Spring ([8]; Preemergence, 31 g ai/ha): 3
Plant response rating, Barley, Spring ([8]; Preemergence, 62 g ai/ha): 5
Plant response rating, Barley, Spring ([8]; Preemergence, 125 g ai/ha): 73
Plant response rating, Oilseed Rape ([9]; Postemergence, 16 g ai/ha): 85
Plant response rating, Oilseed Rape ([9]; Postemergence, 31 g ai/ha): 87
Plant response rating, Oilseed Rape ([9]; Postemergence, 62 g ai/ha): 90
Plant response rating, Oilseed Rape ([9]; Postemergence, 125 g ai/ha): 100
Plant response rating, Oilseed Rape ([9]; Preemergence, 16 g ai/ha): 0
Plant response rating, Oilseed Rape ([9]; Preemergence, 31 g ai/ha): 18
Plant response rating, Oilseed Rape ([9]; Preemergence, 62 g ai/ha): 85
Plant response rating, Oilseed Rape ([9]; Preemergence, 125 g ai/ha): 100

Cc1ccc2ccc(F)cc2c1-c1c(O)c(Cl)nn(C)c1=O [Cpd. No. 21]
Plant response rating (0 to 100 scale) [1]: 90
Plant response rating (0 to 100 scale) [2]: 90
Plant response rating (0 to 100 scale) [3]: 35
Plant response rating (0 to 100 scale) [4]: 80
Plant response rating, Field Poppy ([5]; 16 g ai/ha): 60
Plant response rating, Field Poppy ([5]; 31 g ai/ha): 70
Plant response rating, Field Poppy ([5]; 62 g ai/ha): 75
Plant response rating, Field Poppy ([5]; 125 g ai/ha): 98

Cc1ccc2ccc(C)c(-c3c(O)c(Cl)nn(C)c3=O)c2c1 [Cpd. No. 20, 6-chloro-4-(2,7-dimethyl-1-naphthalenyl)-5-hydroxy-2-methyl-3(2H)-pyridazinone]
Plant response rating (0 to 100 scale) [1]: 100
Plant response rating (0 to 100 scale) [2]: 90
Plant response rating (0 to 100 scale) [3]: 15
Plant response rating (0 to 100 scale) [4]: 25
Plant response rating, Chickweed ([6]; 16 g ai/ha): 95
Plant response rating, Chickweed ([6]; 31 g ai/ha): 95
Plant response rating, Chickweed ([6]; 62 g ai/ha): 95
Plant response rating, Chickweed ([6]; 125 g ai/ha): 98
Plant response rating, Wheat, Spring ([7]; Postemergence, 16 g ai/ha): 15
Plant response rating, Wheat, Spring ([7]; Postemergence, 31 g ai/ha): 25
Plant response rating, Wheat, Spring ([7]; Postemergence, 62 g ai/ha): 35
Plant response rating, Wheat, Spring ([7]; Postemergence, 125 g ai/ha): 55
Plant response rating, Wheat, Spring ([7]; Preemergence, 16 g ai/ha): 0
Plant response rating, Wheat, Spring ([7]; Preemergence, 31 g ai/ha): 12
Plant response rating, Wheat, Spring ([7]; Preemergence, 62 g ai/ha): 28
Plant response rating, Wheat, Spring ([7]; Preemergence, 125 g ai/ha): 62
Plant response rating, Barley, Spring ([8]; Postemergence, 16 g ai/ha): 0
Plant response rating, Barley, Spring ([8]; Postemergence, 31 g ai/ha): 5
Plant response rating, Barley, Spring ([8]; Postemergence, 62 g ai/ha): 10
Plant response rating, Barley, Spring ([8]; Postemergence, 125 g ai/ha): 20
Plant response rating, Barley, Spring ([8]; Preemergence, 16 g ai/ha): 0
Plant response rating, Barley, Spring ([8]; Preemergence, 31 g ai/ha): 0
Plant response rating, Barley, Spring ([8]; Preemergence, 62 g ai/ha): 2
Plant response rating, Barley, Spring ([8]; Preemergence, 125 g ai/ha): 10
Plant response rating, Oilseed Rape ([9]; Postemergence, 16 g ai/ha): 15
Plant response rating, Oilseed Rape ([9]; Postemergence, 31 g ai/ha): 15
Plant response rating, Oilseed Rape ([9]; Postemergence, 62 g ai/ha): 20
Plant response rating, Oilseed Rape ([9]; Postemergence, 125 g ai/ha): 25
Plant response rating, Oilseed Rape ([9]; Preemergence, 16 g ai/ha): 0
Plant response rating, Oilseed Rape ([9]; Preemergence, 31 g ai/ha): 0
Plant response rating, Oilseed Rape ([9]; Preemergence, 62 g ai/ha): 0
Plant response rating, Oilseed Rape ([9]; Preemergence, 125 g ai/ha): 0

Cc1ccc2ccc(Cl)cc2c1-c1c(O)c(Cl)nn(C)c1=O [Cpd. No. 22]
Plant response rating (0 to 100 scale) [1]: 90
Plant response rating (0 to 100 scale) [2]: 85
Plant response rating (0 to 100 scale) [3]: 60
Plant response rating (0 to 100 scale) [4]: 40
Plant response rating, Field Poppy ([5]; 16 g ai/ha): 75
Plant response rating, Field Poppy ([5]; 31 g ai/ha): 75
Plant response rating, Field Poppy ([5]; 62 g ai/ha): 75
Plant response rating, Field Poppy ([5]; 125 g ai/ha): 100
Plant response rating, Chickweed ([6]; 16 g ai/ha): 100
Plant response rating, Chickweed ([6]; 31 g ai/ha): 98
Plant response rating, Chickweed ([6]; 62 g ai/ha): 100
Plant response rating, Chickweed ([6]; 125 g ai/ha): 100
Plant response rating, Wheat, Spring ([7]; Postemergence, 31 g ai/ha): 90
Plant response rating, Wheat, Spring ([7]; Postemergence, 62 g ai/ha): 96
Plant response rating, Barley, Spring ([8]; Postemergence, 31 g ai/ha): 67
Plant response rating, Barley, Spring ([8]; Postemergence, 62 g ai/ha): 85
Plant response rating, Oilseed Rape ([9]; Postemergence, 31 g ai/ha): 73
Plant response rating, Oilseed Rape ([9]; Postemergence, 62 g ai/ha): 90
